What all share (format): binding
Experiment [1] deals with T1, GH13-6; pig pancreatic α-amylase (Sus scrofa, UniProt P00690).
T1 construct: gene AMY2; native porcine pancreas enzyme from Sigma; biotinylated, on streptavidin chip
T1 sequence (P00690 16-511): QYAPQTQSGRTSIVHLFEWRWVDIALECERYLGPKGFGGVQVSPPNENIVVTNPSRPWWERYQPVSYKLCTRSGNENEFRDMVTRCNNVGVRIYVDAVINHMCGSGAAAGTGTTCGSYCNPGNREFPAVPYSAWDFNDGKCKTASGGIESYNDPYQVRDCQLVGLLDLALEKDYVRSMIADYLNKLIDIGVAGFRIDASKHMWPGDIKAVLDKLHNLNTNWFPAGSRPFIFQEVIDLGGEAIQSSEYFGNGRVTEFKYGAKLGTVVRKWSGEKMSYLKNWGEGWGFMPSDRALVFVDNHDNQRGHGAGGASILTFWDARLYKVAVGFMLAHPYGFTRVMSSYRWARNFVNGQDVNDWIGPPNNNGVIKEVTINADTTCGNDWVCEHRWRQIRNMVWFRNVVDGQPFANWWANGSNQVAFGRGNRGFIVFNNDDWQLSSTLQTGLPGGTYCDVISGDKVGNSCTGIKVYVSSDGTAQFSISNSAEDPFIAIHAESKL
In words: SPR (Biacore T100), biotinylated enzyme on streptavidin chip. The text has this: SPR (Biacore T100), biotinylated enzyme on streptavidin chip on GH13-6; pig pancreatic α-amylase
Background: SPR reads the build-up and loss of mass on a sensor chip optically.

Experiment [2] deals with T2, GH13-3; E. coli α-amylase (Escherichia coli, UniProt P26612).
T2 construct: gene amyA; commercial recombinant (Prozomix); biotinylated, on streptavidin chip; GH13 subfamily 5 implied by homology to Bacillus sp
T2 sequence (P26612 1-495): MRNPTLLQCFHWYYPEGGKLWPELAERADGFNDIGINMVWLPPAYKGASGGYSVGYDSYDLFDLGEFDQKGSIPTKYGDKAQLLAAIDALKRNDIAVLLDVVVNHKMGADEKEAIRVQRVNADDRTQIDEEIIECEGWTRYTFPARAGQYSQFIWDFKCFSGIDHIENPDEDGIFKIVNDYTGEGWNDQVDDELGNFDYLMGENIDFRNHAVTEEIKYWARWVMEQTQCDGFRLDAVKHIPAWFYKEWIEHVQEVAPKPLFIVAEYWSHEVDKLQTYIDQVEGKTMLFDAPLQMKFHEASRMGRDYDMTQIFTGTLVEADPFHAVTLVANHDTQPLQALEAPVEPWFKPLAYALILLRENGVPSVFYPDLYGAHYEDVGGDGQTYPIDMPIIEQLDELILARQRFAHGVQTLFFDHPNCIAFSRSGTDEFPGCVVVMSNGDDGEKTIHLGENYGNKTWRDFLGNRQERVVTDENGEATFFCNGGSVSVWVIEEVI
The experiment is described as above. The source says: SPR (Biacore T100), biotinylated enzyme on streptavidin chip on GH13-3; E. coli α-amylase

The target of experiment [3] is T3, GH13-5; pullulanase from Bacillus subtilis (Bacillus subtilis, UniProt C0SPA0).
T3 construct: gene amyX; commercial recombinant (Prozomix); contains CBM48; biotinylated, on streptavidin chip
T3 sequence (C0SPA0 1-718): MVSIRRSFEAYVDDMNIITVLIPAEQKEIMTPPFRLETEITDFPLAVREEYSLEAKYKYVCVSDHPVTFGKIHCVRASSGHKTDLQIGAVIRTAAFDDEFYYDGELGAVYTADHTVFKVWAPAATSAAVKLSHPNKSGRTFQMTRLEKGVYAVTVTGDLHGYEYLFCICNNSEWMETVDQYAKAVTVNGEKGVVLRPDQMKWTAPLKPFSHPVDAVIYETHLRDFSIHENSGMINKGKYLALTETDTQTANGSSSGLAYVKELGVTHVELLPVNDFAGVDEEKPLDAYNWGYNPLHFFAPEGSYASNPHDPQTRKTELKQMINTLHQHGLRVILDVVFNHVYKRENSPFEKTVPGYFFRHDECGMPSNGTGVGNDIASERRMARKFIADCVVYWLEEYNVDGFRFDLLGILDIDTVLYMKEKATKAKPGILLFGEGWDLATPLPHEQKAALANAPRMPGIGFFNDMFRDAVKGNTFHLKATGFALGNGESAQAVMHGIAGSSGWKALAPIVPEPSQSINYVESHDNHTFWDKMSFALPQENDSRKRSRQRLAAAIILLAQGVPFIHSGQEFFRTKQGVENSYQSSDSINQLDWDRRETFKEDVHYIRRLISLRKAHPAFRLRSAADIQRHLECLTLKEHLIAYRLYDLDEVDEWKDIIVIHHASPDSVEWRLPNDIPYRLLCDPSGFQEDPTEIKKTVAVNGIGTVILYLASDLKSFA
Described as above. The text has this:
SPR (Biacore T100), biotinylated enzyme on streptavidin chip on GH13-5; pullulanase from Bacillus subtilis

Experiment [4] deals with T4, GH8-1; endoglucanase from Clostridium thermocellum (Acetivibrio thermocellus, UniProt A3DC29).
T4 construct: gene celA; commercial recombinant (NZYtech), no CBM; amine-coupled to CM5 chip
T4 sequence (A3DC29 33-477): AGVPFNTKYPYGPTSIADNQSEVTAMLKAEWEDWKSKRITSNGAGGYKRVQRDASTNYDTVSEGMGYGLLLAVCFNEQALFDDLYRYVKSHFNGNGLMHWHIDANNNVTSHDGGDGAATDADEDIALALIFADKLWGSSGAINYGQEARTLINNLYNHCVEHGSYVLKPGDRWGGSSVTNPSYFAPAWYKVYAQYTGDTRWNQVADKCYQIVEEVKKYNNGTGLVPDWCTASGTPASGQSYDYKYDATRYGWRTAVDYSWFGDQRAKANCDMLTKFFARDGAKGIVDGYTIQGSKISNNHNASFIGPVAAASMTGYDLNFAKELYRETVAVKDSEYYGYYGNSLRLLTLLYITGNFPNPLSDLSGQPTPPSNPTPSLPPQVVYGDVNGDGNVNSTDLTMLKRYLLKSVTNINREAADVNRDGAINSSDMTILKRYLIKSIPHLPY
In words: SPR (Biacore T100), enzyme amine-coupled to CM5 chip. To be noted: immobilised enzyme; ligand 10-5000 μM; weak, not saturable.

Experiment [5] addresses T5, GH48-1; processive endoglucanase from Clostridium cellulolyticum (Ruminiclostridium cellulolyticum, UniProt P37698).
T5 construct: gene celCCF; commercial recombinant (NZYtech), no CBM; amine-coupled to CM5 chip
T5 sequence (P37698 30-650 limits assumed): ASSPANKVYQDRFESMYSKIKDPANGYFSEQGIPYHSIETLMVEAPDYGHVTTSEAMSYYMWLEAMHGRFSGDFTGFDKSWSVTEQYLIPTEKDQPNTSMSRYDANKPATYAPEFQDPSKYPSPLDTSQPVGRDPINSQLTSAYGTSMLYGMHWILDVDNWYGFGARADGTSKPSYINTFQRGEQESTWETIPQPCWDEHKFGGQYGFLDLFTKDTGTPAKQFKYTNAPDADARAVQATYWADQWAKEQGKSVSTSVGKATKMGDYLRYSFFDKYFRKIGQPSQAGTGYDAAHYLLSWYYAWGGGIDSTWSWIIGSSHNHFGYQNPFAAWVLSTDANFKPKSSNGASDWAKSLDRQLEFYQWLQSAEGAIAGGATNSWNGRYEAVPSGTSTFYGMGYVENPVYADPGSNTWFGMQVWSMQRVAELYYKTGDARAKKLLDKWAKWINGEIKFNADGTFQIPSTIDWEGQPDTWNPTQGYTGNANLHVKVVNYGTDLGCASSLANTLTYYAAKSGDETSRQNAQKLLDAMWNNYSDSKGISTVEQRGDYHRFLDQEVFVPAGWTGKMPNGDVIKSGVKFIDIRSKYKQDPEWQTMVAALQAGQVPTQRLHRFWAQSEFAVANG
The experiment is described as above. To be noted: one-site fit; immobilised enzyme. The text has this: SPR (Biacore T100), enzyme amine-coupled to CM5 chip on GH48-1; processive endoglucanase from Clostridium cellulolyticum

The target of experiment [6] is T6, GH6-1; endoglucanase from Thermobifida fusca (Thermobifida fusca, UniProt P26222).
T6 construct: gene celB; gift of David Wilson; amine-coupled to CM5 chip
T6 sequence (P26222 32-322 limits assumed): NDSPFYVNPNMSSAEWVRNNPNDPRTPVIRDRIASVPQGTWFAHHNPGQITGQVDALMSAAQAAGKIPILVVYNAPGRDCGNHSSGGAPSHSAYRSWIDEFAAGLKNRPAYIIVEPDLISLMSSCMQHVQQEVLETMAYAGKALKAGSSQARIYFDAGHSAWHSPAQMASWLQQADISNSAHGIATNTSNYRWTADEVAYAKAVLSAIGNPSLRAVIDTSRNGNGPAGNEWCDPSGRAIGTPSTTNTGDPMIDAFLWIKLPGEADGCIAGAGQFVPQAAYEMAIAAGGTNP
Described as above. The note with it: one-site fit; immobilised enzyme. The text has this: SPR (Biacore T100), enzyme amine-coupled to CM5 chip on GH6-1; endoglucanase from Thermobifida fusca

Experiment [7] addresses T4, GH8-1; endoglucanase from Clostridium thermocellum. The experiment is described as above. The note with it: one-site fit; immobilised enzyme; stoichiometry above 2 (several sites). The text has this: SPR (Biacore T100), enzyme amine-coupled to CM5 chip on GH8-1; endoglucanase from Clostridium thermocellum

Like-named read-outs stand apart in the source and are kept apart here.

By Kd is commonly meant the constant that tells how readily two partners part at equilibrium. High values mean weaker binding, low ones tighter binding.

For `OC[C@H]1O[C@@H]2O[C@H]3[C@H](O)[C@@H](O)[C@@H](O[C@H]4[C@H](O)[C@@H](O)[C@@H](O[C@H]5[C@H](O)[C@@H](O)[C@@H](O[C@H]6[C@H](O)[C@@H](O)[C@@H](O[C@H]7[C@H](O)[C@@H](O)[C@@H](O[C@H]8[C@H](O)[C@@H](O)[C@@H](O[C@H]1[C@H](O)[C@H]2O)O[C@@H]8CO)O[C@@H]7CO)O[C@@H]6CO)O[C@@H]5CO)O[C@@H]4CO)O[C@@H]3CO` [β-cyclodextrin], the Kd in experiment [1] turned out to be 870 ± 400 µM; in experiment [2] it was 1360 ± 50 µM; in experiment [3], 970 ± 130 µM.
`OC[C@H]1O[C@H](O[C@H]2[C@H](O)[C@@H](O)[C@@H](O[C@H]3[C@H](O)[C@@H](O)[C@@H](O[C@H]4[C@H](O)[C@@H](O)[C@@H](O[C@H]5[C@H](O)[C@@H](O)[C@@H](O[C@H]6[C@H](O)[C@@H](O)C(O)O[C@@H]6CO)O[C@@H]5CO)O[C@@H]4CO)O[C@@H]3CO)O[C@@H]2CO)[C@H](O)[C@@H](O)[C@@H]1O` (stereo partly drawn) [maltohexaose] returned a Kd in experiment [1] (one-site fit, immobilised enzyme, stoichiometry above 1 (several sites)) of 1330 ± 120 µM.
Consider `OC[C@H]1O[C@H](O[C@H]2[C@H](O)[C@@H](O)[C@@H](O[C@H]3[C@H](O)[C@@H](O)[C@@H](O[C@H]4[C@H](O)[C@@H](O)C(O)O[C@@H]4CO)O[C@@H]3CO)O[C@@H]2CO)[C@H](O)[C@@H](O)[C@@H]1O` (stereo partly drawn) [maltotetraose], for which the NS entry in experiment [4] is reported as “GH8-1 interacts weakly with these oligosaccharides”.
For the compound `OC1OC[C@@H](O[C@@H]2OC[C@@H](O[C@@H]3OC[C@@H](O[C@@H]4OC[C@@H](O)[C@H](O)[C@H]4O)[C@H](O)[C@H]3O)[C@H](O)[C@H]2O)[C@H](O)[C@H]1O` (stereo partly drawn) [xylotetraose], in experiment [4], the NS result is listed as “GH8-1 interacts weakly with these oligosaccharides”.
As to `OC[C@H]1O[C@@H](O[C@H]2[C@H](O)[C@@H](O)[C@H](O[C@H]3[C@H](O)[C@@H](O)[C@H](O[C@H]4[C@H](O)[C@@H](O)[C@H](O[C@H]5[C@H](O)[C@@H](O)C(O)O[C@@H]5CO)O[C@@H]4CO)O[C@@H]3CO)O[C@@H]2CO)[C@H](O)[C@@H](O)[C@@H]1O` (stereo partly drawn) [cellopentaose], the Kd was found to be 2070 ± 780 µM in experiment [5], 330 ± 110 µM in experiment [6] and 860 ± 90 µM in experiment [7].

(Values after publication PMC4978508, “Using Carbohydrate Interaction Assays to Reveal Novel Binding Sites in Carbohydrate Active Enzymes” (PLoS ONE, 2016).)
